Data from patent publication US20220402917A1, “COMPOUND AS SMALL MOLECULE INHIBITOR PD-1/PD-L1 AND APPLICATION THEREOF” (MEDSHINE DISCOVERY INC., priority 2019, published 2022).

Experiments:
PD1/PD-L1 [1] = target: T1, PD1/PD-L1 (Homo sapiens, UniProt Q9NZQ7); assay: NFAT activity test (TCR Activitor/PD-L1 CHO cells with PD-1/NFAT Reporter-Jurkat cells); format: cell-based; parameters: host or cells: TCR Activitor/PD-L1 CHO cells; PD-1/NFAT Reporter-Jurkat cells; conditions: TCR Activitor/PD-L1 CHO cells + PD-1/NFAT Reporter-Jurkat cells, 5 hours, luciferase
Outline: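 TCR activator/PD-L1 CHO cells were pretreated 30 min at 37 °C with compound (20 μM to 0.25 nM, 5-fold steps, 2% DMSO). PD-1/NFAT reporter Jurkat cells were then added for 5 h at 37 °C. NFAT-driven luciferase read by Bright-Glo luminescence, normalised to Min/Max, IC50 from 4-parameter fit.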
Target sequence in this assay (Q9NZQ7 19-290): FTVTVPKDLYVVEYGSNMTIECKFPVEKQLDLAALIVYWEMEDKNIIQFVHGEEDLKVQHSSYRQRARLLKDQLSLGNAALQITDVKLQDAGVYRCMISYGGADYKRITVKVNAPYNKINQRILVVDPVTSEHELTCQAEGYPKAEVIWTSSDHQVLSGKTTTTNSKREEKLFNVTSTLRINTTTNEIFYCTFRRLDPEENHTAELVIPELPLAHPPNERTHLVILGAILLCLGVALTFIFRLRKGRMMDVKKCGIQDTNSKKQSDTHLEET

PD1/PD-L1 [2] = target: T1, PD1/PD-L1; assay: PD-1/PD-L1 homogeneous time-resolved fluorescence (HTRF) binding experiment; parameters: purchased BPS Biosciences; conditions: HTRF (TR-FRET), PD-L1-biotin, PD1-Eu
Excerpt: Experimental Example 1: PD-1/PD-L1 Homogenouse Time-Resolved Fluorescence (HTRF) Binding Experiment
When the PD-1 molecule as the donor is very close to the PD-L1 molecule as the acceptor, the donor molecule will transfer the energy to the receptor molecule, which in turn causes the receptor molecule to emit fluorescence. The ability of small molecules to prevent the binding of PD-L1 to PD-1 can be tested by detecting the intensity of fluorescence. A homogeneous time-resolved fluorescence (HTRF) binding experiment is used to detect the ability of the compounds of the present disclosure to inhibit the binding of PD-1/PD-L1.
PD1/PD-L1 TR-FRET detection kit was purchased from BPS Biosciences. Nivo multi-label analyzer (PerkinElmer).
PD1-Eu, Dye-labeled acceptor, PD-L1-biotin and compounds to be tested were diluted with the buffer in the kit. The compounds to be tested were subjected to 5-fold dilution to eight concentration gradients with a row gun. That is, from 40 μM to 0.5 nM, the DMSO concentration was 4%, and a double-well experiment was set up. 5 μL of inhibitor with each concentration gradient were added to the microwell plate, and 5 μL buffer containing 4% DMSO and 5 μL PD-L1-biotin (PD-L1-biotin) (60 nM) were added into well with the maximum signal (Max) and the well with the minimum signal (Min), only 5 μL of buffer was added to the well with the minimum signal (Min), and the incubation was conducted at 25° C. for 20 minutes. After the incubation was completed, 5 μL of diluted PD1-Eu (10 nM) and […] were added to each well. The reaction system was placed at 25° C. for 90 minutes. The TR-FRET signal was read by a multi-label analyzer after the reaction was completed.
Using the equation (sample−Min)/(Max−Min)×100% to convert the raw data into inhibition rate, and the IC50 value can be obtained by curve fitting with four parameters (obtained from log(inhibitor) vs. response—Variable slope mode in GraphPad Prism). Table 1 provides the inhibitory activity of the compounds of the examples of the present disclosure on PD1/PD-L1 binding
Target sequence in this assay (Q9NZQ7 19-239 limits assumed): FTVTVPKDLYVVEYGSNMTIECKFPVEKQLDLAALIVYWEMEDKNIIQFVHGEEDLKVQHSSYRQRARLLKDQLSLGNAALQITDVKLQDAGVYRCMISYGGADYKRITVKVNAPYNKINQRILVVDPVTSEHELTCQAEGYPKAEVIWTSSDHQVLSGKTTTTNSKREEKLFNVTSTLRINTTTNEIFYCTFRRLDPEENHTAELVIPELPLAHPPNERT

Maximum effect (induction fold) (PD1/PD-L1 [1]): 3.96 induction fold | IC50 (PD1/PD-L1 [1]; read-out: IC50, inhibitory activity on PD1/PD-L1 binding (NFAT activity test)): 13.9 nM | IC50 (PD1/PD-L1 [2]): 7.14 nM
SMILES: COc1nc(-c2cccc(-c3cccc(NC(=O)c4cc(C)c5c(n4)CN(CCO)CC5)c3Cl)c2Cl)cnc1CN1CC(O)C1 [Compound 21]
